The assay concerns Barnyard grass (Echinochloa crusgalli L.). The experiment in a line: Herbicidal activity, foliar spraying (spectrum and SAR study). The assay is classed as in vivo. To be noted: SAR study, foliar spray 3 mL of 5 mg/mL; for pest or weed control at 5000 µg/mL: Echinochloa crus-galli, 72 h, read-out: Efficacy of phytotoxic activity; for pest or weed control at 5000 µg/mL / Efficacy of phytotoxic activity: one pot of barnyard grass, at least 3 days after spraying. An excerpt:
All weed, sedge and crop seedlings were planted in 8 cm×8 cm×7.2 cm or 10 cm×10 cm×9 cm plastic pots. Seedlings including pigweed (Amaranthus retroflexus, L.), barnyard grass (Echinochloa crusgalli L.), bindweed (Convolvulus arvensis L.), crabgrass (Digitaria sanguinalis L.), dandelion (Taraxacum officinale F.), lambsquarters (Chenopodium album L.), bluegrass (Poa annua L.), wild mustard (Brassica kaber L.), black nightshade (Solanum nigrum L.), curly dock (Rumex crispus L.), horseweed (Conyza Canadensis L.), sweet corn (Zea may S.) and wheat PR 1404 (Triticum aestivum L.) were planted in Super Soil potting soil. Seedlings including rice M-104 (Oryza saliva L.), sedge (Cyperus difformis L.) and sprangletop (Leptochloa fascicularis Lam) were planted in mud which was collected from rice field (Woodland, Calif., USA). When treated, all seedlings were 15 days old except for rice (10 days), wheat (20 days), corn (20 days) sprangletop (20 days old), sedge (20 days old) and horse weed (70 days old).
Herbicidal activity of the active compound and synthesized compounds was evaluated by foliar spraying. Spraying carrier solution contained 2% ethanol, 0.2% glycosperse O-20 and 0.1% sodium lauryl sulfate. Freshly made solution with the evaluated compound at a concentration of 5 mg/mL was used. In the spectrum study, spraying volume was dependent on the foliar surface area, ranging from approximately 1 to 3 mL/pot plants. One or two pots of plants were treated for each. Number of pots was dependent on both foliar area and availability. In the structure-activity relationship study, one pot of barnyard grass was used and the spraying volume of each compound was 3 mL of 5 mg/mL.
The optimal concentration of sarmentine was 5 mg/mL for excellent control of barnyard grass (Figure 2). Therefore, such a concentration was subjected to herbicidal spectrum study. Due to the hydrophobic property of sarmentine, a carrier solution containing 0.2% glycosperse O-20, 2% ethanol and 0.1% sodium lauryl sulfate was used. Although this solution contains a high concentration of surfactants, sarmentine can stay suspended in this solution no more than 15 min. Therefore, sarmentine was made freshly just before spraying.

With `CCCCC/C=C\C=C\C(=O)OCC` [No 3], the pest or weed control at 5000 µg/mL was less than 20%. The same measure, in the same setting: then `CCCCCCCCCC(=O)NC1CCCC1` [No 4, N-Cyclopentyldecanamide], with less than 20%. The same measure, in the same setting: then `CCCCC/C=C\C=C\C(=O)NC1CCCC1` [No 6, N-Cyclopentyl 2E,4Z-decadienamide], with less than 20%; and `O=C(/C=C/c1ccccc1)NC1CCCC1` [No 7, N-Cyclopentylcinnamamide], with less than 20%. In the case of `CCCCCCCCCC(=O)N1CCCC1` [No 8, N-(Decanoyl)pyrrolidine], the pest or weed control at 5000 µg/mL was in the range of 80 to 100% and the “Phytotoxic activity relative to sarmentine / toxicity to barnyard grass (in words)” value was “remained the same”. For the molecule `CCCCCCC/C=C/C(=O)N1CCCC1` [No 9, N-(Decenoyl)pyrrolidine], the pest or weed control at 5000 µg/mL lay in the range of 80 to 100% and the “Phytotoxic activity relative to sarmentine / toxicity to barnyard grass (in words)” value is given as “remained the same”. In the case of `CCCCC/C=C\C=C\C(=O)N1CCCC1` [No 10, (2E,4Z-Decadienoyl)pyrrolidine], the pest or weed control at 5000 µg/mL lay within 80 to 100% and the “Phytotoxic activity relative to sarmentine / toxicity to barnyard grass (in words)” value is reported as “remained the same”. Taken in the same sequence, the figures for `O=C(/C=C/c1ccccc1)N1CCCC1` [No 11, N-(trans-Cinnamoyl)pyrrolidine] were 80 to 100% and “remained the same”. In the case of `CCCCCCCCCC(=O)N1CCCCC1` [No 12, N-(Decanoyl)piperidine], the pest or weed control at 5000 µg/mL fell in the range of 80 to 100% and the “Phytotoxic activity relative to sarmentine / toxicity to barnyard grass (in words)” value is “remained the same”. Take `CCCCCCC/C=C/C(=O)N1CCCCC1` [No 13, N-(Decenoyl)piperidine]: the pest or weed control at 5000 µg/mL was 80 to 100%. For the molecule `CCCCC/C=C\C=C\C(=O)N1CCCCC1` [No 14, (2E,4Z-Decadienoyl)piperidine], the pest or weed control at 5000 µg/mL was 80 to 100%. Same read-out and setting: then `O=C(/C=C/c1ccccc1)N1CCCCC1` [No 15, N-(trans-Cinnamoyl)piperidine], with 40 to 60%.

As for `CCCCCCCCCC(=O)N1CCCCCC1` [No 16, N-(Decanoyl)hexamethyleneimine], the pest or weed control at 5000 µg/mL lay within 80 to 100% and the “Phytotoxic activity relative to sarmentine / toxicity to barnyard grass (in words)” value is on record as “remained the same”. `CCCCCCC/C=C/C(=O)N1CCCCCC1` [No 17, N-(Decenoyl)hexamethyleneimine]: the pest or weed control at 5000 µg/mL lay within 80 to 100%.

`CCCCC/C=C\C=C\C(=O)N1CCCCCC1` [No 18, (2E,4Z-Decadienoyl)hexamethleneimine]: the pest or weed control at 5000 µg/mL is 80 to 100%. For `O=C(/C=C/c1ccccc1)N1CCCCCC1` [No 19, N-(trans-Cinnamoyl) hexamethleneimine], the pest or weed control at 5000 µg/mL was less than 20%.

Consider `O=C(O)/C=C/c1ccccc1` [No 20, trans-cinnamic acid, reference compound], for which the pest or weed control at 5000 µg/mL lay within 60 to 80% and the “Phytotoxic activity relative to sarmentine / toxicity to barnyard grass (in words)” value is given as “very active”. On to `CCCCCCCCCC(=O)O` [No 21, decanoic acid], for which the pest or weed control at 5000 µg/mL lay within 80 to 100% and the “Phytotoxic activity relative to sarmentine / toxicity to barnyard grass (in words)” value is “very active”. Taken in the same sequence, the figures for `CCCCCCC/C=C/C(=O)O` [No 22, 2E-decenoic acid] were 80 to 100% and “very active”. As to `NC1CCCC1` [No 23, cyclopentylamine, reference compound], the “Phytotoxic activity relative to sarmentine / toxicity to barnyard grass (in words)” value was “non toxic” and the “Efficacy of phytotoxic activity” value is listed as “I”. Consider `C1CCNCC1` [No 25, piperidine, reference compound], for which the “Phytotoxic activity relative to sarmentine / toxicity to barnyard grass (in words)” value is “non toxic” and the “Efficacy of phytotoxic activity” value is “I”. As for `C1CCCNCC1` [No 26, hexamethyleneimine, reference compound], the “Phytotoxic activity relative to sarmentine / toxicity to barnyard grass (in words)” value is reported as “non toxic” and the “Efficacy of phytotoxic activity” value is reported as “I”.

Regarding pyrrolidine [No 24, reference compound], the “Phytotoxic activity relative to sarmentine / toxicity to barnyard grass (in words)” value is given as “non toxic” and the “Efficacy of phytotoxic activity” value is recorded as “I”.
